Patent publication US12264155B2, “Compounds, pharmaceutical compositions, and methods of preparing compounds and of their use as ATR kinase inhibitors” (Repare Therapeutics Inc., priority 2018, dated 2025)

System: ATR kinase (CHK1 phosphorylation at Ser345) in HeLa S3 cells
Assay: ATR assay in HeLa S3 cells (CHK1 p-Ser345 AlphaScreen SureFire, gemcitabine); further: gemcitabine 1.5 µM
Format: cell-based
Details: Homo sapiens, HeLa S3, HeLa S3 whole cell assay, 3.5 to 4 hours
Procedure: Media was then replaced by 20 μL per well Opti-MEM no phenol red and 5 μL of serial diluted compounds were added to the assay plate for a final DMSO concentration of 0.5%. […] The plate was incubated at 37° C., 1-5% CO2 for 3.5 to 4 hours.

IC50 [nM]	Structure (SMILES)
0.9	C[C@@H]1COCCN1c1cc([C@@]2(O)C[C@H]3CC[C@@H](C2)O3)c2cnn(-c3cc[nH]n3)c2n1 (stereo in doubt) [Compound 121]
0.5	C[C@@H]1COCCN1c1cc(C2(O)CCN(c3cccc(F)c3)CC2)c2cnn(-c3cc[nH]n3)c2n1 [Compound 93]
1.9	C[C@@H]1COCCN1c1cc(C2(O)CCN(c3ccc(Cl)cc3)CC2)c2cnn(-c3cc[nH]n3)c2n1 [Compound 94]
2	C[C@@H]1COCCN1c1cc(C2(O)CCN(c3ccc(C#N)cc3)CC2)c2cnn(-c3cc[nH]n3)c2n1 [Compound 95]
20	C[C@@H]1COCCN1c1cc(C2(O)CCN(c3ncccc3C(F)(F)F)CC2)c2cnn(-c3cc[nH]n3)c2n1 [Compound 96]
0.9	C[C@@H]1COCCN1c1cc([C@]2(O)CC[C@H](c3ccccc3)CC2)c2cnn(-c3cc[nH]n3)c2n1 [Compound 97]
1.2	C[C@@H]1COCCN1c1cc([C@]2(O)CC[C@@H](c3ccccc3)CC2)c2cnn(-c3cc[nH]n3)c2n1 [Compound 98]
1	COC1CCC(O)(c2cc(N3CCOC[C@H]3C)nc3c2cnn3-c2cc[nH]n2)CC1 (stereo partly drawn) [Compound 101]
0.9	COCC1CCC(O)(c2cc(N3CCOC[C@H]3C)nc3c2cnn3-c2cc[nH]n2)CC1 (stereo partly drawn) [Compound 102]
1.7	C[C@@H]1COCCN1c1cc(C2(O)CCC(C#N)CC2)c2cnn(-c3cc[nH]n3)c2n1 (stereo partly drawn) [Compound 103]
2.4	C[C@@H]1COCCN1c1cc([C@]2(O)CCC[C@H](C(F)(F)F)C2)c2cnn(-c3cc[nH]n3)c2n1 [Compound 104]
1.1	C[C@@H]1COCCN1c1cc(C2(O)CCC3(CC2)COC3)c2cnn(-c3cc[nH]n3)c2n1 [Compound 105]
3.3	C[C@@H]1COCCN1c1cc([C@]2(O)CC[C@@](C)(C#N)CC2)c2cnn(-c3cc[nH]n3)c2n1 [Compound 106]
2	C[C@@H]1COCCN1c1cc(C2(O)CCOC3(CCC3)C2)c2cnn(-c3cc[nH]n3)c2n1 (stereo partly drawn) [Compound 107]
0.7	C[C@@H]1COCCN1c1cc(C2(O)CCC3(CCOCC3)CC2)c2cnn(-c3cc[nH]n3)c2n1 [Compound 110]
2.4	C[C@@H]1COCCN1c1cc(C2(O)CCCOCC2)c2cnn(-c3cc[nH]n3)c2n1 (stereo partly drawn) [Compound 111]
0.8	C[C@@H]1COCCN1c1cc([C@]2(O)CC[C@@]3(CCCO3)CC2)c2cnn(-c3cc[nH]n3)c2n1 [Compound 112]
2.1	C[C@@H]1COCCN1c1cc([C@]2(O)CC[C@]3(CCCO3)CC2)c2cnn(-c3cc[nH]n3)c2n1 [Compound 113]
0.8	C[C@@H]1COCCN1c1cc([C@]2(O)CC[C@H](C(F)(F)F)CC2)c2cnn(-c3cc[nH]n3)c2n1 [Compound 114]
1.2	C[C@@H]1COCCN1c1cc(C2(O)CCN(c3ccc(F)cc3)CC2)c2cnn(-c3cc[nH]n3)c2n1 [Compound 116]
1.1	C[C@@H]1COCCN1c1cc(C2(O)C[C@H]3CC[C@@H](C2)S3)c2cnn(-c3cc[nH]n3)c2n1 (stereo partly drawn) [Compound 122]

IC50 [nM]	Structure (SMILES)
0.9	C[C@@H]1COCCN1c1cc(C2(O)CCC3(CC3)CC2)c2cnn(-c3cc[nH]n3)c2n1 [Compound 123]
63	C[C@@H]1COCCN1c1cc(-c2ccccc2S(=O)(=O)NC2CC2)c2cnn(-c3cc[nH]n3)c2n1 [Compound 124]
11	C[C@@H]1COCCN1c1cc(-c2cccnc2N)c2cnn(-c3cc[nH]n3)c2n1 [Compound 125, (R)-3-(6-(3-methylmorpholino)-1-(1H-pyrazol-3-yl)-1H-pyrazolo[3,4-b]pyridin-4-yl)pyridin-2-amine]
7	Cc1nc(C(N)=O)c(-c2cc(N3CCOC[C@H]3C)nc3c2cnn3-c2cc[nH]n2)s1 [Compound 127]
2.4	C[C@@H]1COCCN1c1cc(-c2ccccc2C(C)(C)O)c2cnn(-c3cc[nH]n3)c2n1 [Compound 128]
11	C[C@@H]1COCCN1c1cc(-c2cccnc2C(N)=O)c2cnn(-c3cc[nH]n3)c2n1 [Compound 129]
13	C[C@@H]1COCCN1c1cc(-c2cccc(Cl)c2C(N)=O)c2cnn(-c3cc[nH]n3)c2n1 [Compound 130]
1.8	C[C@@H]1COCCN1c1cc(-c2cccc(C(F)(F)F)c2C(N)=O)c2cnn(-c3cc[nH]n3)c2n1 [Compound 131]
1.9	C[C@@H]1COCCN1c1cc(C2(O)CCC(C(C)(C)C)CC2)c2cnn(-c3ccn[nH]3)c2n1 (stereo partly drawn) [Compound 132]
1.5	C[C@@H]1COCCN1c1cc(C2(O)CCC(OC(F)(F)F)CC2)c2cnn(-c3ccn[nH]3)c2n1 (stereo partly drawn) [Compound 133]
46	C[C@@H]1COCCN1c1cc(N2CCCOCC2=O)c2cnn(-c3cc[nH]n3)c2n1 [Compound 136]
2.1	C[C@@H]1COCCN1c1cc(N2CCN(c3ccccn3)CC2)c2cnn(-c3cc[nH]n3)c2n1 [Compound 137]
9.4	C[C@@H]1COCCN1c1cc(-c2ccc(C(F)(F)F)nc2N)c2cnn(-c3cc[nH]n3)c2n1 [Compound 138]
4.2	Cc1ccc(-c2cc(N3CCOC[C@H]3C)nc3c2cnn3-c2cc[nH]n2)c(N)n1 [Compound 139]
7.2	C[C@@H]1COCCN1c1cc(-c2cc(Cl)cnc2N)c2cnn(-c3cc[nH]n3)c2n1 [Compound 140]
3.6	C[C@@H]1COCCN1c1cc(-c2ccc(F)cc2C(F)(F)F)c2cnn(-c3cc[nH]n3)c2n1 [Compound 142]
7.2	COc1ccc(-c2cc(N3CCOC[C@H]3C)nc3c2cnn3-c2cc[nH]n2)c(C(F)(F)F)c1 [Compound 143]
1.3	C[C@@H]1COCCN1c1cc(-c2cccnc2C(F)(F)F)c2cnn(-c3cc[nH]n3)c2n1 [Compound 144]
3.8	C[C@@H]1COCCN1c1cc(-c2ccc(F)cc2S(C)(=O)=O)c2cnn(-c3cc[nH]n3)c2n1 [Compound 145]
3.1	C[C@@H]1COCCN1c1cc(-c2ccc(C3CC3)nc2N)c2cnn(-c3cc[nH]n3)c2n1 [Compound 146]
2.5	C[C@@H]1COCCN1c1cc(C2=C[C@H]3CC[C@@H](C2)O3)c2cnn(-c3cc[nH]n3)c2n1 [Compound 148]

Structure (SMILES)	IC50 [nM]
C[C@@H]1COCCN1c1cc(C2(O)CCN(CC(F)F)CC2)c2cnn(-c3cc[nH]n3)c2n1 [Compound 108]	1.3
C[C@@H]1COCCN1c1cc(C2(O)CCN(C(C)(C)C)CC2)c2cnn(-c3cc[nH]n3)c2n1 [Compound 109]	17
C[C@@H]1COCCN1c1cc(C2(O)C3CCC2CN(C)C3)c2cnn(-c3cc[nH]n3)c2n1 (stereo partly drawn) [Compound 117]	38
CC(C)N1CCC(O)(c2cc(N3CCOC[C@H]3C)nc3c2cnn3-c2cc[nH]n2)CC1 [Compound 118]	6.4
C[C@@H]1COCCN1c1cc(C2(O)CC(C)(C)N(C)C(C)(C)C2)c2cnn(-c3cc[nH]n3)c2n1 [Compound 119]	14
C[C@@H]1COCCN1c1cc(C2(O)CCN(CC(F)(F)F)CC2)c2cnn(-c3cc[nH]n3)c2n1 [Compound 120]	1.2

Molecular target: ATR/ATRIP (Homo sapiens (Human), UniProt Q13535)
Sequence (Q13535 whole entry): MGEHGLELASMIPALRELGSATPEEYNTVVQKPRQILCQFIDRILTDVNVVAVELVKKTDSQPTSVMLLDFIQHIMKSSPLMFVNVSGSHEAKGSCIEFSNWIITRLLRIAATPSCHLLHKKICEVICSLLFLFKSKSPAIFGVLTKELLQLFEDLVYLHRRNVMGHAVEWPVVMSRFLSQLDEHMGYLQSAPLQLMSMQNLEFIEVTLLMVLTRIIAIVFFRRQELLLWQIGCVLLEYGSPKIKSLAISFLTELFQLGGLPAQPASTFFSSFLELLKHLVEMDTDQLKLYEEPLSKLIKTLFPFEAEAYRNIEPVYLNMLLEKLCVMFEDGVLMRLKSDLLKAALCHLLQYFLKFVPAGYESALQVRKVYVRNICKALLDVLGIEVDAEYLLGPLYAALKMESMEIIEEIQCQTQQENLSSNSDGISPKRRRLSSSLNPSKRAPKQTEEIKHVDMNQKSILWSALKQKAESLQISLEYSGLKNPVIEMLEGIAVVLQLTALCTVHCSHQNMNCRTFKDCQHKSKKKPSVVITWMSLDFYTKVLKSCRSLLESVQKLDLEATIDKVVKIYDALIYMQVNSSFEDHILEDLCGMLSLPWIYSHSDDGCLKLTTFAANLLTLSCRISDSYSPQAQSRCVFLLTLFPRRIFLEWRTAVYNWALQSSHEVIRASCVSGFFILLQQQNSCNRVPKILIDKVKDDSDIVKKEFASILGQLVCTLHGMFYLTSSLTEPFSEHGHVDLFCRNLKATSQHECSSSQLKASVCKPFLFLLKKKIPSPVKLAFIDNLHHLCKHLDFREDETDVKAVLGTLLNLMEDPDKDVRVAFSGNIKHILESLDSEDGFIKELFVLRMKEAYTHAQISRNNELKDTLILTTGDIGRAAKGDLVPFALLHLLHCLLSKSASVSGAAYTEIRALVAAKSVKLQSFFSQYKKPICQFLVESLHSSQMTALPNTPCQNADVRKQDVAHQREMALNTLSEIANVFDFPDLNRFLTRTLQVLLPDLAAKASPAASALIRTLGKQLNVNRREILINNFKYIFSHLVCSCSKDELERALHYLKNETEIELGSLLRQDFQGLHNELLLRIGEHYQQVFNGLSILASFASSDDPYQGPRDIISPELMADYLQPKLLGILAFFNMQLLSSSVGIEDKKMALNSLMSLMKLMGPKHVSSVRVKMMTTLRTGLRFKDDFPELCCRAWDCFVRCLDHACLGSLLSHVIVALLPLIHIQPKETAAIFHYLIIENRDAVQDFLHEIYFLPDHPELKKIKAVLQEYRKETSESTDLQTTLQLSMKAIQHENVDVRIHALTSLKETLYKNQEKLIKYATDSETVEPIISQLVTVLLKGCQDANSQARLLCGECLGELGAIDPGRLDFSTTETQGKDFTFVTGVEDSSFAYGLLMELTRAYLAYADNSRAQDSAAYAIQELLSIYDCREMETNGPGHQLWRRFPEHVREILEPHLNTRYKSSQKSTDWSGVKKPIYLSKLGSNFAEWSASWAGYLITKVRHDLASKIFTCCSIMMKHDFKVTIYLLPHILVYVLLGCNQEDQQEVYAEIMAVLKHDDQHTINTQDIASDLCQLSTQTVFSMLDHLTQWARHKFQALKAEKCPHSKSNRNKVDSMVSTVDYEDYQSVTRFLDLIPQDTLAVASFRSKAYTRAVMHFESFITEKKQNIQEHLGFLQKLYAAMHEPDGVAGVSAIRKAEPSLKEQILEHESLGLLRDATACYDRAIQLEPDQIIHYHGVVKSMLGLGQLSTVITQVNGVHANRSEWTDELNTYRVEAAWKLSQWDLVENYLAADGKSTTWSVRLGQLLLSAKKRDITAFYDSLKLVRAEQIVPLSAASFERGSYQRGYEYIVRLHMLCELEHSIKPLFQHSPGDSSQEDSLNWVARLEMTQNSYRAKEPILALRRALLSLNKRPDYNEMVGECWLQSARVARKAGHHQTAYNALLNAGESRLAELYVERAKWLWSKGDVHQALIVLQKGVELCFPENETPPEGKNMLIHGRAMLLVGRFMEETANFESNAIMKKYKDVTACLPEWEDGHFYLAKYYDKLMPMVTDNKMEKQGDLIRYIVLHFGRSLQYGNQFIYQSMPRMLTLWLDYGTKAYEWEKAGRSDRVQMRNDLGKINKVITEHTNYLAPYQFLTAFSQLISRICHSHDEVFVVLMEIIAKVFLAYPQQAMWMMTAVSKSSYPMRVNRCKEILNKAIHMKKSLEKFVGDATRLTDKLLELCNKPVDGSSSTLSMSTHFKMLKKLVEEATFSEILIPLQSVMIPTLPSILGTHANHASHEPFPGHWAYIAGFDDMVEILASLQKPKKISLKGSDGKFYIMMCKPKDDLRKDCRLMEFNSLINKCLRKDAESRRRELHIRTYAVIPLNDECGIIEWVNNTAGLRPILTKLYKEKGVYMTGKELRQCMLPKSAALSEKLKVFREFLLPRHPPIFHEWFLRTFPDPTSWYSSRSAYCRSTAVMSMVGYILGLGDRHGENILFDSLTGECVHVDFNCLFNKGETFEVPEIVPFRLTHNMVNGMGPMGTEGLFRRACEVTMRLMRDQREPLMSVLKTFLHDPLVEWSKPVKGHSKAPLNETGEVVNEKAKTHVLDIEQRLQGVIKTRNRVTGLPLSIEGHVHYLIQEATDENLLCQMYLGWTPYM
Sequence (Q8WXE1 whole entry partner): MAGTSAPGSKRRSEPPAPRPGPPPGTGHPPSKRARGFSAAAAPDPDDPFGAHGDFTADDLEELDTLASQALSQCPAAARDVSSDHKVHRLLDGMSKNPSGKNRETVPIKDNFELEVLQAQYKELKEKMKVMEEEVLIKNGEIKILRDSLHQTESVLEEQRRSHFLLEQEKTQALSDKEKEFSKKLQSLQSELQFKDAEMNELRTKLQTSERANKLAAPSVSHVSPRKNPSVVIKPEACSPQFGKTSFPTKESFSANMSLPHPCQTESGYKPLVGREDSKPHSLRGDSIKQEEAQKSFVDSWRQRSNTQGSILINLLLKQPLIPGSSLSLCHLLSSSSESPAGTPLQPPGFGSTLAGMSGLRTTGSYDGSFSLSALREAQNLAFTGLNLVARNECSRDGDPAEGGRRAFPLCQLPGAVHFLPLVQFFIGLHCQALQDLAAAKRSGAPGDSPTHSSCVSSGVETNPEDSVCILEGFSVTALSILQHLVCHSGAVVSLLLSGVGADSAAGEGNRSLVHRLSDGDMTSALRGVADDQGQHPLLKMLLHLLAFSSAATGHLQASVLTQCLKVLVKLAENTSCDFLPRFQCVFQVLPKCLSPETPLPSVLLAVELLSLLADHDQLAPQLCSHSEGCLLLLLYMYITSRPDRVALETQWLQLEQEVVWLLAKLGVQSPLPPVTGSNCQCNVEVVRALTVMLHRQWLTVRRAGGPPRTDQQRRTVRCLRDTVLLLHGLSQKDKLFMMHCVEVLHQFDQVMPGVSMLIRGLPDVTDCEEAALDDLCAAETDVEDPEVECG
Assay: ATR/ATRIP enzymatic assay (AlphaScreen, phosphorylation of p53)
Details: read-out: ATR IC50; recombinant ATR/ATRIP 0.63 nM, 25 nM GST-p53, 3 μM ATP, 1 hour room temperature
Procedure: Detection of ATR kinase activity utilized the AlphaScreen system to measure the phosphorylation of the substrate protein p53. […] Plates were incubated at room temperature in the dark for 4 hours and read on a BMG Polarstar using AlphaScreen dedicated filters. […] IC50 values were determined using a 4-parameter fit algorithm.

IC50 [nM]	Structure (SMILES)
554	C[C@@H]1COCCN1c1nc2c(cnn2-c2cc[nH]n2)c(C(C)(C)C#N)c1Cl [Compound 69]
< 5	C=Cc1nn(-c2cc[nH]n2)c2nc(N3CCOC[C@H]3C)cc(C(C)(C)C#N)c12 [Compound 71]
94	C[C@@H]1COCCN1c1cc(-c2nncs2)c2cnn(-c3cc[nH]n3)c2n1 [Compound 72]
3	C[C@@H]1COCCN1c1cc(C2(C#N)CCOCC2)c2cnn(-c3cc[nH]n3)c2n1 [Compound 73]
8	C[C@@H]1COCCN1c1cc(C2(C#N)CCSCC2)c2cnn(-c3cc[nH]n3)c2n1 [Compound 74]
29	C[C@@H]1COCCN1c1cc(C2(C#N)CC[S+]([O-])CC2)c2cnn(-c3cc[nH]n3)c2n1 (stereo partly drawn) [Compound 75]
36	C[C@@H]1COCCN1c1cc(C2(C#N)CCS(=O)(=O)CC2)c2cnn(-c3cc[nH]n3)c2n1 [Compound 76]
5	C[C@@H]1COCCN1c1cc(C2(C(N)=O)CCCCC2)c2cnn(-c3cc[nH]n3)c2n1 [Compound 77]
24	C[C@@H]1COCCN1c1cc(C2(CN)CCCCC2)c2cnn(-c3cc[nH]n3)c2n1 [Compound 78]
30	C[C@@H]1COCCN1c1cc(C2(C#N)CN(C(=O)OC(C)(C)C)C2)c2cnn(-c3cc[nH]n3)c2n1 [Compound 79]
6	C[C@@H]1COCCN1c1cc(C2(C#N)CCN(C(=O)OC(C)(C)C)C2)c2cnn(-c3cc[nH]n3)c2n1 (stereo partly drawn) [Compound 80]
8	C[C@@H]1COCCN1c1cc(C2(C#N)CCN(C(=O)OC(C)(C)C)CC2)c2cnn(-c3cc[nH]n3)c2n1 [Compound 81]
17	C[C@@H]1COCCN1c1cc(C2(C#N)CNC2)c2cnn(-c3cc[nH]n3)c2n1 [Compound 82]
22	C[C@@H]1COCCN1c1cc(C2(C#N)CCNCC2)c2cnn(-c3cc[nH]n3)c2n1 [Compound 83]
9	C[C@@H]1COCCN1c1cc(C2(C#N)CCNC2)c2cnn(-c3cc[nH]n3)c2n1 (stereo partly drawn) [Compound 84]
< 5	Cc1cc(-n2ncc3c(C(C)(C)C#N)cc(N4CCOC[C@H]4C)nc32)[nH]n1 [Compound 86]
10	C[C@@H]1COCCN1c1cc(N2CCNC(=O)C2)c2cnn(-c3ccn[nH]3)c2n1 [Compound 87]
31	C[C@@H]1COCCN1c1cc(-c2ccc(S(C)(=O)=O)cc2)c2cnn(-c3ccn[nH]3)c2n1 [Compound 89]
165	C[C@@H]1COCCN1c1cc(C(C)(C)C#N)c2cnn(-c3ncc[nH]3)c2n1 [Compound 90]
< 5	C[C@@H]1COCCN1c1cc(-c2ccccc2F)c2cnn(-c3ccn[nH]3)c2n1 [Compound 91]
8	C[C@@H]1COCCN1c1cc(-c2cccc(S(C)(=O)=O)c2)c2cnn(-c3ccn[nH]3)c2n1 [Compound 92]
